Data taken from ChEMBL document CHEMBL1152465, “Comparative evaluation of the inhibitory activities of a series of pyrimidinedione congeners that inhibit human immunodeficiency virus types 1 and 2” (Antimicrob Agents Chemother, 2008).
The source made the active and inactive calls.

How the values were obtained:
[1] = tested on: Human immunodeficiency virus 2; assay: Antiviral activity against HIV2 ROD infected in human CEM-SS cells assessed as inhibition of virus-induced cytopathic effect by XTT assay; format: functional, organism-based, ISOLATE ROD
[2] = Therapeutic index, ratio of TC50 for human CEM-SS cells to EC50 for HIV1 RF infected in human CEM-SS cells; format: cell-based; settings: read-out: TI
[3] = Therapeutic index, ratio of TC50 for human CEM-SS cells to EC50 for HIV2 ROD infected in human CEM-SS cells; format: cell-based; settings: for selectivity ratio: CEM-SS cells, read-out: TI; for TI: cem-ss
[4] = biological target: Human immunodeficiency virus type 1 reverse transcriptase (Human immunodeficiency virus 1, UniProt Q72547); assay: Inhibition of wild type HIV1 reverse transcriptase assessed as 32P-labeled GMP incorporation into nascent DNA strand
[5] = biological target: Human immunodeficiency virus type 1 reverse transcriptase (Human immunodeficiency virus 1, UniProt Q72547, K103N); assay: Inhibition of HIV1 reverse transcriptase K103N mutant assessed as 32P-labeled GMP incorporation into nascent DNA strand
[6] = tested on: Human immunodeficiency virus 1; assay: Antiviral activity against HIV1 infected in human HeLa cells expressing CD4-LTR assessed as inhibition of viral entry-related beta galactosidase expression treated for 2 hrs followed by drug wash out measured after 48 hrs by MAGI assay; format: functional, organism-based; settings: Human immunodeficiency virus 1, HeLa
[7] = Cytotoxicity against human HeLa cells expressing CD4-LTR by XTT assay; format: cell-based; settings: read-out: TC50 (the source's name)
[8] = Therapeutic index, ratio of TC50 human HeLa cells expressing CD4-LTR to EC50 for HIV1 entry inhibition in human HeLa cells expressing CD4-LTR; format: cell-based; settings: read-out: TI
[9] = tested on: Human immunodeficiency virus 1; assay: Antiviral activity against HIV1 infected in human CEM-SS cells assessed as inhibition of viral replication and virus-induced cytopathic effect by dose-response curve analysis; format: functional; settings: Human immunodeficiency virus 1, CEM-SS
[10] = tested on: Human immunodeficiency virus 2; assay: Inhibition of HIV2 reverse transcriptase
[11] = tested on: Human immunodeficiency virus 2; assay: Antiviral activity against HIV2 assessed as inhibition of viral single round replication at early time point; format: functional, organism-based
[12] = tested on: Human immunodeficiency virus 2; assay: Antiviral activity against HIV2 assessed as inhibition of viral replication treated at time points after viral entry into host cells; format: functional, organism-based
[13] = tested on: Human immunodeficiency virus 2; assay: Inhibition of HIV2 reverse transcriptase assessed as 32P-labeled GMP incorporation into nascent DNA strand at highest concentration
[14] = tested on: Human immunodeficiency virus 1; assay: Antiviral activity against HIV1 RF infected in human CEM-SS cells assessed as inhibition of virus-induced cytopathic effect by XTT assay; format: functional, organism-based; settings: Human immunodeficiency virus 1, RF
[15] = Cytotoxicity against human CEM-SS cells by XTT assay; format: cell-based; settings: read-out: TC50 (the source's name)
[16] = Human immunodeficiency virus 2, ISOLATE ROD, CEM-SS, read-out: EC50

SMILES	EC50 [1, 16] [µM]	selectivity ratio [2]	selectivity ratio [3]	IC50 [4] [µM]	IC50 [5] [µM]	EC50 [6] [µM]	CC50 [7] [µM]	selectivity ratio [8]	EC99 [9] [µM]	Activity [10]	Activity [11]	Activity [12]	Activity [13]	EC50 [14] [µM]	CC50 [15] [µM]	EC50 ([1]; cem-ss)	TI [3]
CCc1c(C(=O)c2cc(C)cc(C)c2)n(CC2CCC2)c(=O)[nH]c1=O	4.5	60700	190	2.4	4.38	0.06	850	14500	1	inactive	Active	inactive	inactive	0.014	850	–	–
CCc1c(Sc2cc(C)cc(C)c2)n(CCC2=CCCC2)c(=O)[nH]c1=O	19.2	528	7.4	2.16	18.3	0.03	143	4400	1	inactive	Active	inactive	inactive	0.27	143	–	–
Cc1cc(C)cc(Sc2c(C(C)C)c(=O)[nH]c(=O)n2CCC2CCCC2)c1	–	92	–	0.233	205	1.28	15.4	12	1	inactive	Active	inactive	inactive	0.15	14.2	Not Active	Not Active
Cc1cc(C)cc(C(=O)c2c(C(C)C)c(=O)[nH]c(=O)n2CCC2CC=CC2)c1	0.6	2390	23	0.011	1.7	0.82	24.9	30	1	inactive	Active	inactive	inactive	0.015	13.9	–	–
Cc1cc(C)cc(Sc2c(C(C)C)c(=O)[nH]c(=O)n2Cc2ccccc2)c1	0.2	165000	1220	0.137	1.66	0.08	192	2340	1	inactive	Active	inactive	inactive	0.0012	192	–	–
CCc1c(Sc2cc(C)cc(C)c2)n(CCC2CC=CC2)c(=O)[nH]c1=O	1.7	1030	11.4	0.179	141	0.09	135	1460	1	inactive	Active	inactive	inactive	0.0241	19.5	–	–
CCc1c(Sc2cc(C)cc(C)c2)n(CC2CC=CC2)c(=O)[nH]c1=O	0.5	9060	38.2	0.21	2.4	0.26	38.9	148	1	inactive	Active	inactive	inactive	0.0066	18.3	–	–
CCc1c(Sc2cc(C)cc(C)c2)n(CC2CC2)c(=O)[nH]c1=O	0.1	25500	62.5	0.018	0.257	0.009	14.4	1580	1	inactive	Active	inactive	inactive	0.0008	7.6	–	–
Cc1cc(C)cc(C(=O)c2c(C(C)C)c(=O)[nH]c(=O)n2CCC2CCCC2)c1	–	1180	–	0.065	2.6	0.014	20.6	1460	1	inactive	Active	inactive	inactive	0.02	17.3	Not Active	Not Active
CCc1c(C(=O)c2cc(C)cc(C)c2)n(Cc2ccccc2)c(=O)[nH]c1=O	0.4	68300	59.3	0.025	2.3	0.05	562	10200	1	inactive	Active	inactive	inactive	0.016	24.6	–	–
Cc1cc(C)cc(C(=O)c2cc(=O)[nH]c(=O)n2CC2CC=CC2)c1	30.9	40	2.8	119	> 308	0.71	87.3	124	1	inactive	Active	inactive	inactive	2.16	87.3	–	–
CCc1c(Oc2cc(C)cc(C)c2)n(CCC2C=CCC2)c(=O)[nH]c1=O (stereo not given)	0.7	570000	> 1650	0.21	1.96	0.06	1110	17600	1	inactive	Active	inactive	inactive	0.0019	1100	–	–
Cc1cc(C)cc(C(=O)c2c(C(C)C)c(=O)[nH]c(=O)n2CC2CCCCC2)c1	0.7	8550	23.8	0.008	16.5	0.24	30.4	127	1	inactive	Active	inactive	inactive	0.0052	16.2	–	–
CCc1c(Oc2cc(C)cc(C)c2)n(CC2CCCC2)c(=O)[nH]c1=O	2.9	1450	7	0.137	0.272	0.23	20.9	89	1	inactive	Active	inactive	inactive	0.015	20.2	–	–
CCc1c(Sc2cc(C)cc(C)c2)n(CC2CCCC2)c(=O)[nH]c1=O	3.2	3980	70.4	0.126	10.5	0.14	222	1590	1	inactive	Active	inactive	inactive	0.056	222	–	–
Cc1cc(C)cc(C(=O)c2c(C(C)C)c(=O)[nH]c(=O)n2Cc2ccccc2)c1	0.1	840	223	0.011	1.4	0.03	20.1	726	1	inactive	Active	inactive	inactive	0.027	17.8	–	–
CCc1c(Oc2cc(C)cc(C)c2)n(CCC2=CCCC2)c(=O)[nH]c1=O	28.2	2600	> 39.7	10.3	247	2.62	1110	424	1	inactive	Active	inactive	inactive	0.42	1100	–	–
Cc1cc(C)cc(C(=O)c2c(C(C)C)c(=O)[nH]c(=O)n2CC2CCC2)c1	0.4	2870	86.4	0.068	1.81	0.06	34.2	606	1	inactive	Active	inactive	inactive	0.012	34.2	–	–
